From patent US20150031102A1, “METHODS AND COMPOSITIONS FOR ENHANCED PRODUCTION OF BUTANOL BY CLOSTRIDIA” (Butrolix LLC, priority 2012, published 2015)
“And” between values parts separate entries of the source, which are not always exact repeats. Identical values can stand only once.

Test system: Clostridium acetobutylicum strain ATCC 824
Assay: Sequential batch transfer in 24-well culture plates (butanol, residual glucose, butanol yield and productivity)
Assay type: cell-based
Conditions: for Butanol: Experiment 1; for Residual glucose concentration: initial glucose 60 g/L
Procedure: Each well contained 1.5 mL of growth medium. Peptide was added to each well at the indicated concentration (0, 25, 50, and 100 nM). Every 24 hours fresh medium and peptide treatment were added to a new column of wells then 1.5 μL of the previous day culture was transferred to the new well. Wells were harvested for glucose and butanol analysis after 96 hours of growth. Transfers 1, 4, 7, 10, 13, 16, […].
Briefly, Clostridium spores were germinated in a suitable growth medium for 18-24 hours then […] was transferred to 1.5 mL of fresh medium in each of four wells on a 24-well culture plate. Three of the wells had been treated with 25 nM, 50 nM and 100 nM of peptide, respectively while the fourth well was untreated. Thereafter, every 24 hours […] of each subculture was transferred to 1.5 mL of fresh medium that contained the same peptide treatment or no treatment. Transfers of successive subcultures were done for 24 days, and each subculture was grown for 96 hours before being harvested. Culture supernatants were recovered following centrifugation and were analyzed for butanol and residual glucose concentrations. Determination of optimum peptide treatment levels was based on a graphical comparison of the concentration of butanol in each of the four culture wells for sequential transfers 1, 4, 7, 10, 13, 16, 19, 22 and 24.
Clostridium acetobutylicum strain ATCC 824 was used in all experiments and the growth medium used for sequential batch transfer, time course, and continuous culture experiments contained yeast extract, casamino acids, L-cysteine, L-asparagine, phosphate buffer, trace minerals, and 6% glucose. What are believed to be quorum-sensing peptides that were used in the experiments were chemically synthesized peptides SEQ ID NO: 143 (amino acid sequence: SYPGWSW) and SEQ ID NO: 144 (amino acid sequence: ILILISG). Routine growth of the bacteria as well as the sequential batch and time course experiments were conducted in a Form a Scientific Model 1029 anaerobic gas chamber at 32° C. Continuous cultures were performed at 32° C. using duplicate New Brunswick Scientific BioFlo 3000 apparati with a dilution rate of 0.01 volume per hour, 75 rpm agitation, and nitrogen gas sparging. Optical density of culture samples was measured at 600 nm in a Beckman DU 600 series spectrophotometer and glucose was analyzed using a YSI Model 2700 Select Biochemistry Analyzer with internal glucose calibration. Butanol concentrations were determined by measuring experimental and standard samples using a Varian Saturn 3 Gas Chromatograph/Mass Spectrometer and calculating butanol concentrations using standard curves.
(§1) Sequential batch transfer experiments were carried out in 24-well culture plates that contained 1.5 mL of medium per well. Peptide was added to each well at the indicated concentrations of 0 nM (control), 25 nM, 50 nM, or 100 nM. Every 24 hours, fresh medium and peptide treatments were added to a new column of wells. Then, 1.5 uL of the previous day culture was transferred to the new well. Wells were harvested for glucose and butanol analysis after 96 hours of growth; transfers 1, 4, 7, 10, 13, 16, 19, 22, and 24 were analyzed. Two representative experiments are shown in Tables 30 and 31 and FIGS. 14 and 15.
as §1, with “32” for “30”, “33” for “31”, “16” for “14”, “17.” for “15.”

[1] = 50 nM, transfer 10, first experiment, after 96 hours of culture
[2] = 50 nM, transfer 13, first experiment, after 96 hours of culture
[3] = 50 nM, transfer 16, first experiment, after 96 hours of culture
[4] = 50 nM, transfer 19, first experiment, after 96 hours of culture
[5] = 50 nM, transfer 22, first experiment, after 96 hours of culture
[6] = 50 nM, transfer 24, first experiment, after 96 hours of culture
[7] = 100 nM peptide, transfer 1, after 96 hours of culture, Expt. 2 (repeat)
[8] = 100 nM peptide, transfer 4, after 96 hours of culture, Expt. 2 (repeat)
[9] = 100 nM peptide, transfer 7, after 96 hours of culture, Expt. 2 (repeat)
[10] = 100 nM peptide, transfer 10, after 96 hours of culture, Expt. 2 (repeat)
[11] = 100 nM peptide, transfer 13, after 96 hours of culture, Expt. 2 (repeat)
[12] = 100 nM peptide, transfer 16, after 96 hours of culture, Expt. 2 (repeat)
[13] = 100 nM peptide, transfer 19, after 96 hours of culture, Expt. 2 (repeat)
[14] = 100 nM peptide, transfer 22, after 96 hours of culture, Expt. 2 (repeat)
[15] = 100 nM peptide, transfer 24, after 96 hours of culture, Expt. 2 (repeat)
[16] = 100 nM, transfer 1, first experiment, after 96 hours of culture
[17] = 100 nM, transfer 4, first experiment, after 96 hours of culture
[18] = 100 nM, transfer 7, first experiment, after 96 hours of culture
[19] = 100 nM, transfer 10, first experiment, after 96 hours of culture
[20] = 100 nM, transfer 13, first experiment, after 96 hours of culture
[21] = 100 nM, transfer 16, first experiment, after 96 hours of culture
[22] = 100 nM, transfer 19, first experiment, after 96 hours of culture
[23] = 100 nM, transfer 22, first experiment, after 96 hours of culture
[24] = 100 nM, transfer 24, first experiment, after 96 hours of culture
[25] = BP110517 first experiment, 25 nM, transfers 19, 22 and 24
[26] = BP110517 first experiment, 50 nM, transfer 10

## SYPGWSW [peptide SEQ ID NO: 143]
50 nM, transfer 10, after 96 hours of culture, listed as BP110517
  Butanol: 13.7 g/L and 13.66 g/L
[1]
  Butanol productivity: 0.14 g butanol/L-h
  Butanol yield: 0.23 g butanol/g/glucose
  Residual glucose concentration: 0.1 g/L
50 nM, transfer 13, after 96 hours of culture
  Butanol: 10.28 g/L
[2]
  Butanol productivity: 0.11 g butanol/L-h
  Butanol yield: 0.17 g butanol/g/glucose
  Residual glucose concentration: 0.1 g/L
50 nM, transfer 16, after 96 hours of culture
  Butanol: 10.95 g/L
[3]
  Butanol productivity: 0.11 g butanol/L-h
  Butanol yield: 0.18 g butanol/g/glucose
  Residual glucose concentration: 0.1 g/L
50 nM, transfer 19, after 96 hours of culture
  Butanol: 3.96 g/L
[4]
  Butanol productivity: 0.04 g butanol/L-h
  Butanol yield: 0.07 g butanol/g/glucose
  Residual glucose concentration: 47.6 g/L
50 nM, transfer 22, after 96 hours of culture
  Butanol: 5.35 g/L
[5]
  Butanol productivity: 0.06 g butanol/L-h
  Butanol yield: 0.09 g butanol/g/glucose
  Residual glucose concentration: 45.9 g/L
50 nM, transfer 24, after 96 hours of culture
  Butanol: 4.70 g/L
[6]
  Butanol productivity: 0.05 g butanol/L-h
  Butanol yield: 0.08 g butanol/g/glucose
  Residual glucose concentration: 50.2 g/L
[7]
  Butanol concentration: 0.62 g/L
  Butanol productivity: 0.01 g butanol/L-h
  Butanol yield: 0.01 g butanol/g/glucose
  Residual glucose concentration: 55.6 g/L
[8]
  Butanol concentration: 1.50 g/L
  Butanol productivity: 0.02 g butanol/L-h
  Butanol yield: 0.03 g butanol/g/glucose
  Residual glucose concentration: 49.3 g/L
[9]
  Butanol concentration: 4.10 g/L
  Butanol productivity: 0.04 g butanol/L-h
  Butanol yield: 0.07 g butanol/g/glucose
  Residual glucose concentration: 0.1 g/L
[10]
  Butanol concentration: 7.37 g/L
  Butanol productivity: 0.08 g butanol/L-h
  Butanol yield: 0.13 g butanol/g/glucose
  Residual glucose concentration: 0.1 g/L
[11]
  Butanol concentration: 5.60 g/L
  Butanol productivity: 0.06 g butanol/L-h
  Butanol yield: 0.10 g butanol/g/glucose
  Residual glucose concentration: 0.1 g/L
[12]
  Butanol concentration: 7.51 g/L
  Butanol productivity: 0.08 g butanol/L-h
  Butanol yield: 0.13 g butanol/g/glucose
  Residual glucose concentration: 0.1 g/L
[13]
  Butanol concentration: 4.03 g/L
  Butanol productivity: 0.04 g butanol/L-h
  Butanol yield: 0.07 g butanol/g/glucose
  Residual glucose concentration: 0.1 g/L
[14]
  Butanol concentration: 5.05 g/L
  Butanol productivity: 0.05 g butanol/L-h
  Butanol yield: 0.09 g butanol/g/glucose
  Residual glucose concentration: 0.1 g/L
[15]
  Butanol concentration: 3.42 g/L
  Butanol productivity: 0.04 g butanol/L-h
  Butanol yield: 0.06 g butanol/g/glucose
  Residual glucose concentration: 0.1 g/L
100 nM, transfer 1, after 96 hours of culture
  Butanol: 1.14 g/L
[16]
  Butanol productivity: 0.01 g butanol/L-h
  Butanol yield: 0.02 g butanol/g/glucose
  Residual glucose concentration: 48.3 g/L
100 nM, transfer 4, after 96 hours of culture
  Butanol: 6.97 g/L
[17]
  Butanol productivity: 0.07 g butanol/L-h
  Butanol yield: 0.12 g butanol/g/glucose
  Residual glucose concentration: 0.1 g/L
100 nM, transfer 7, after 96 hours of culture
  Butanol: 7.33 g/L
[18]
  Butanol productivity: 0.08 g butanol/L-h
  Butanol yield: 0.12 g butanol/g/glucose
  Residual glucose concentration: 0.1 g/L
100 nM, transfer 10, after 96 hours of culture
  Butanol: 11.33 g/L
[19]
  Butanol productivity: 0.12 g butanol/L-h
  Butanol yield: 0.19 g butanol/g/glucose
  Residual glucose concentration: 0.1 g/L
100 nM, transfer 13, after 96 hours of culture
  Butanol: 7.22 g/L
[20]
  Butanol productivity: 0.08 g butanol/L-h
  Butanol yield: 0.12 g butanol/g/glucose
  Residual glucose concentration: 0.1 g/L
100 nM, transfer 16, after 96 hours of culture
  Butanol: 9.59 g/L
[21]
  Butanol productivity: 0.10 g butanol/L-h
  Butanol yield: 0.16 g butanol/g/glucose
  Residual glucose concentration: 0.1 g/L
100 nM, transfer 19, after 96 hours of culture
  Butanol: 4.76 g/L
[22]
  Butanol productivity: 0.05 g butanol/L-h
  Butanol yield: 0.08 g butanol/g/glucose
  Residual glucose concentration: 0.1 g/L
100 nM, transfer 22, after 96 hours of culture
  Butanol: 6.85 g/L
[23]
  Butanol productivity: 0.07 g butanol/L-h
  Butanol yield: 0.11 g butanol/g/glucose
  Residual glucose concentration: 0.1 g/L
100 nM, transfer 24, after 96 hours of culture
  Butanol: 4.67 g/L
[24]
  Butanol productivity: 0.05 g butanol/L-h
  Butanol yield: 0.08 g butanol/g/glucose
  Residual glucose concentration: 0.1 g/L
BP110517, sequential batch cultures (summary of findings)
  Transfers over which butanol production was enhanced: transfer 4 through transfer 19
BP110517 first experiment, 25 nM, transfer 4
  Butanol yield and productivity greater than untreated control: 23%
BP110517 first experiment, 25 nM, transfer 16
  Butanol yield and productivity greater than untreated control: 24%
[25]
  Decrease of butanol concentration below that of controls: 20%
  Reduction in glucose utilization: 80%
BP110517 first experiment, 50 nM, transfer 4
  Butanol yield and productivity greater than untreated control: 20%
[26]
  Butanol productivity: 0.14 g butanol/1-hour
  Butanol yield: 0.23 g butanol/g glucose
  Butanol yield and productivity greater than untreated control: 46%
BP110517 first experiment, 50 nM, transfer 16
  Butanol yield and productivity greater than untreated control: 16%
BP110517 first experiment, 100 nM, except at transfer 10
  Effect on butanol production versus untreated control: generally resulted in decreased butanol production, or no difference from the untreated control
BP110517 first experiment, all treated and untreated cultures, transfer 4 through transfer 16
  Glucose consumption: ~100%
SEQ ID NO: 143 first experiment, 25 nM, transfer 4
  Increase in butanol over untreated control: ~25%
SEQ ID NO: 143 first experiment, 25 nM, transfer 4, listed as BP110517
  Increase in butanol over untreated control: 23%
SEQ ID NO: 143 first experiment, 25 nM, transfer 16
  Increase in butanol over untreated control: 24%
SEQ ID NO: 143 first experiment, 50 nM, transfer 4
  Increase in butanol over untreated control: ~25%
SEQ ID NO: 143 first experiment, 50 nM, transfer 4, listed as BP110517
  Increase in butanol over untreated control: 20%
SEQ ID NO: 143 first experiment, 50 nM, transfer 10
  Increase in butanol over untreated control: 46%
SEQ ID NO: 143 first experiment, 50 nM, transfer 16
  Increase in butanol over untreated control: 16%
SEQ ID NO: 143 first experiment, 100 nM, transfer 10
  Increase in butanol over untreated control: 21%
SEQ ID NO: 143 second experiment, 50 nM, transfer 10
  Increase in butanol over untreated control: more than 200%
SEQ ID NO: 143 second experiment, 50 nM, transfer 10, listed as BP110517
  Increase in butanol over untreated control: 223%
SEQ ID NO: 143 second experiment, 50 nM, transfer 13
  Increase in butanol over untreated control: 289%
SEQ ID NO: 143 second experiment, 50 nM, transfer 16
  Increase in butanol over untreated control: 170%
SEQ ID NO: 143 second experiment, 100 nM, transfer 10
  Increase in butanol over untreated control: more than 200%
Sequential and continuous cultures
  Effect on differentiation and butanol production: inducer of differentiation and butanol production
